Series [1] concerns human red blood cells. Conditions: 10 mM phosphate buffer saline pH 7.4, 25 °C, 4 h, visual inspection, 0.1% Triton X-100 positive control. As to the method:
Compounds were subjected to a hemolysis assay to assess the hemolytic effect on human red blood cells (hRBCs). The blood was obtained from Interregionale Blutspende SRK AG, Bern, Switzerland. 1.5 mL of whole blood was centrifuged at 3000 rpm for 15 minutes at 4 °C. The plasma was discarded, and the hRBC pellet was re-suspended in 5 mL of PBS (pH 7.4) then centrifuged at 3000 rpm for 5 minutes at 4 °C. The washing of hRBC was repeated three times and the remaining pellet was re-suspended in 10 mL of PBS.
The samples were prepared as the initial concentration of 4000 μg mL^−1 in PBS, added to the first well of 96-well microtiter plate (TPP, untreated) and diluted serially by 1/2. […] Controls on each plate included a blank medium control (PBS 100 μL) and a hemolytic activity control (0.1% Triton X-100). 100 μL of hRBC suspension was incubated with 100 μL of each sample in PBS in 96-well plate (Nunc 96-Well Polystyrene Conical Bottom MicroWell Plates). After the plates were incubated for 4 h at room temperature, minimal hemolytic concentration (MHC) was determined by visual inspection of the wells. 100 μL supernatants was carefully pipetted to a flat bottom, clear wells plate (TPP® tissue culture plates, polystyrene).

Series [2] concerns A. baumannii. Briefly: MIC, broth microdilution. It is filed as cell-based, Acinetobacter baumannii. Conditions: Mueller–Hinton medium, 16–20 h at 37 °C, trifluoroacetate salts. An excerpt: (§1) We synthesized the selected 14 GN and 14 GP peptides by solid phase peptide synthesis and evaluated the activity of their HPLC-purified trifluoroacetate salts by determining minimum inhibitory concentrations (MIC) against bacteria by broth microdilution assay in Muller–Hinton medium and minimum hemolysis concentrations (MHC) on human red blood cells by serial dilution in phosphate buffer saline (Table 1).
(§2) To determine the minimal inhibitory concentration (MIC), the broth microdilution method was used. A colony of bacteria was grown in LB (Lysogeny broth) medium overnight at 37 °C. The samples were prepared as stock solutions of 8 mg mL^−1 in H2O, diluted to the initial concentration of 64 or 128 μg mL^−1 in 300 μL Mueller–Hinton (MH) medium, added to the first well of 96-well microtiter plate (TPP, untreated), and diluted serially by 1/2. The concentration of the bacteria was quantified by measuring absorbance at 600 nm and diluted to OD600 = 0.022 in MH medium. The sample solutions (150 μL) were mixed with 4 μL diluted bacterial suspension with a final inoculation of about of 5 × 10^5 CFU. The plates were incubated at 37 °C until satisfactory growth (∼18 h). […] The MIC was defined as the lowest concentration of the peptide dendrimer that inhibited visible growth of the tested bacteria, as detected after treatment with MTT.
A general note: In broth dilution the organism is exposed to a series of concentrations in liquid medium.

The subject of series [3] is MRSA. Briefly: MIC, broth microdilution. Type of series: cell-based, methicillin-resistant Staphylococcus aureus. Conditions: Mueller–Hinton medium, 16–20 h at 37 °C, trifluoroacetate salts.
From the text: as §1, §2

The test system of series [4] is E. coli. Put plainly: MIC, broth microdilution. Conditions: Mueller–Hinton medium, 16–20 h at 37 °C, trifluoroacetate salts. It is filed as cell-based, Escherichia coli.
From the text: as §1, §2

The subject of series [5] is P. aeruginosa. Put plainly: MIC, broth microdilution. Type of series: cell-based, Pseudomonas aeruginosa. Conditions: Mueller–Hinton medium, 16–20 h at 37 °C, trifluoroacetate salts.
From the text: as §1, §2

Series [6] relates to P. aeruginosa ZEM-1A. It is filed as cell-based. Conditions: MDR Gram-negative strain; Müller–Hinton medium, 16–20 h, 37 °C; two independent experiments in duplicate. As to the method:
(§3) To determine the minimal inhibitory concentration (MIC), the broth microdilution method was used. A colony of bacteria was grown in LB (Lysogeny broth) medium overnight at 37 °C. The samples were prepared as stock solutions of 8 mg mL^−1 in H2O, diluted to the initial concentration of 64 or 128 μg mL^−1 in 300 μL Mueller–Hinton (MH) medium, added to the first well of 96-well microtiter plate (TPP, untreated), and diluted serially by 1/2. The concentration of the bacteria was quantified by measuring absorbance at 600 nm and diluted to OD600 = 0.022 in MH medium. The sample solutions (150 μL) were mixed with 4 μL diluted bacterial suspension with a final inoculation of about of 5 × 10^5 CFU. The plates were incubated at 37 °C until satisfactory growth (∼18 h). For each test, two columns of the plate were kept for sterility control (broth only) and growth control (broth with bacterial inoculums, no antibiotics). The MIC was defined as the lowest concentration of the peptide dendrimer that inhibited visible growth of the tested bacteria, as detected after treatment with MTT.

Series [7] relates to P. aeruginosa ZEM9A. Type of series: cell-based. Conditions: MDR Gram-negative strain; Müller–Hinton medium, 16–20 h, 37 °C; two independent experiments in duplicate. As to the method:
as §3

Series [8] concerns S. epidermidis. It is filed as cell-based. Conditions: MDR Gram-positive strain; Müller–Hinton medium, 16–20 h, 37 °C; two independent experiments in duplicate; in µg/mL. As to the method:
as §3

The test system of series [9] is B. cenocepacia. Type of series: cell-based. Conditions: MDR Gram-negative strain; Müller–Hinton medium, 16–20 h, 37 °C; two independent experiments in duplicate. As to the method: as §3
Series [10] relates to S. maltophilia. It is filed as cell-based. Conditions: MDR Gram-negative strain; Müller–Hinton medium, 16–20 h, 37 °C; two independent experiments in duplicate. As to the method: as §3
Series [11] deals with E. cloacae. It is filed as cell-based. Conditions: MDR Gram-negative strain; Müller–Hinton medium, 16–20 h, 37 °C; two independent experiments in duplicate. As to the method:
as §3

Series [12] concerns P. aeruginosa PA14 2P4 (pmrB). Put plainly: MIC, broth microdilution. It is filed as cell-based. Conditions: spontaneous mutant, polymyxin B resistant; Müller–Hinton medium, 16–20 h, 37 °C; two independent experiments in duplicate. As to the method:
as §3

For series [13], the system named is P. aeruginosa PA14. Briefly: MIC, broth microdilution. Type of series: cell-based. Conditions: Gram-negative; Müller–Hinton medium, 16–20 h, 37 °C; two independent experiments in duplicate. As to the method:
as §3

In series [14] the test system is P. aeruginosa PA14 4.13 (phoQ). Put plainly: MIC, broth microdilution. Conditions: spontaneous mutant, polymyxin B resistant; Müller–Hinton medium, 16–20 h, 37 °C; two independent experiments in duplicate. It is filed as cell-based. As to the method: as §3
In series [15] the test system is P. aeruginosa PA14 4.18 (pmrB). Put plainly: MIC, broth microdilution. It is filed as cell-based. Conditions: spontaneous mutant, polymyxin B resistant; Müller–Hinton medium, 16–20 h, 37 °C; two independent experiments in duplicate. As to the method: as §3
In series [16] the test system is K. pneumoniae (OXA-48). Type of series: cell-based, Klebsiella pneumoniae. Conditions: MDR Gram-negative strain; Müller–Hinton medium, 16–20 h, 37 °C; two independent experiments in duplicate. As to the method: as §3
The test system of series [17] is K. pneumoniae NCTC148. It is filed as cell-based, Klebsiella pneumoniae. Conditions: MDR Gram-negative strain; Müller–Hinton medium, 16–20 h, 37 °C; two independent experiments in duplicate. As to the method: as §3

Ends that are not written are not given here. A value given as a limit tells only on which side of the number the result lay.

Consider AGRLQKVFKVIAK-NH2 [GN13], for which, in series [1], the “MHC (minimal hemolytic concentration)” value is above 2000 µg/mL.
Take AKKVVKKIYKRFQK-NH2 [GP10]: the “MHC (minimal hemolytic concentration)” value in series [1] was above 2000 µg/mL.
Same read-out and setting: to AKRIRKLIKKIFKKI-NH2 [GN1] belongs above 2000 µg/mL; to ARKFRRLVKKLR-NH2 [GP11], above 2000 µg/mL.
For ARKKWRKRLKKLKI-NH2 [GP9], the “MHC (minimal hemolytic concentration)” value in series [1] is above 2000 µg/mL.
On the same count and under the same terms, to ARKWRKFLKKI-NH2 [GP7] belongs above 2000 µg/mL; to FLHSIGKAIGRLLR-NH2 [GP3], 250 µg/mL; to FLKAVKKLIPSLF-NH2 [GP1], 2000 µg/mL.
On the same count and under the same terms, to GIGAVLNVAKKLL-NH2 [GP4] belongs above 2000 µg/mL.
On the same count and under the same terms, to GNWRKIVHKIKKAG-NH2 [GN12] belongs above 2000 µg/mL.
In the case of GRIKRIRKIIHKY-NH2 [GP8], the “MHC (minimal hemolytic concentration)” value in series [1] is above 2000 µg/mL.
For the substance IDKWKAAFKKIKNLF-NH2 [GN3], the “MHC (minimal hemolytic concentration)” value in series [1] turned out to be 500 µg/mL.
IHKLAKLAKNVL-NH2 [GN14]: the “MHC (minimal hemolytic concentration)” value in series [1] was above 2000 µg/mL.
Regarding IRRIRKKIKKIFKKI-NH2 [GN10], in [1], the “MHC (minimal hemolytic concentration)” value is above 2000 µg/mL.
On the same count and under the same terms, to KFFRKLKKLVKK-NH2 [GN5] belongs above 2000 µg/mL.
For the substance KRIRKWVRRILKKL-NH2 [GN7], the “MHC (minimal hemolytic concentration)” value in series [1] was 250 µg/mL.
With KRLWKIRQRIAK-NH2 [GP13], the “MHC (minimal hemolytic concentration)” value in [1] was above 2000 µg/mL.
KRLWKRIYRLLKK-NH2 [GN9]: the “MHC (minimal hemolytic concentration)” value in series [1] was 250 µg/mL.
On the same count and under the same terms, to KVARFLKKFFR-NH2 [GP5] belongs above 2000 µg/mL; to LKKLWKRIIKVGR-NH2 [GP6], above 2000 µg/mL; to LNALKKVFQKIH-NH2 [GP14], above 2000 µg/mL.
As for “LNALKKVFQKIRQGL [GN4, ML-generated linear peptide carboxamide from the P. aeruginosa/A. baumannii model]”, the “MIC A. baumannii” value in series [2] is 16 µg/mL. Besides, the “MIC MRSA” value in series [3] was above 64 µg/mL. For the same substance, in series [4], the “MIC E. coli” value stood at 4 µg/mL. The “MHC (minimal hemolytic concentration)” value in [1] was above 2000 µg/mL. Also, the “MIC P. aeruginosa” value in series [5] came to 32 µg/mL.
Turning to LRKARRLLKKLRARL-NH2 [GN11], the “MHC (minimal hemolytic concentration)” value in series [1] was above 2000 µg/mL.
The same measure, in the same setting: to LRKARRLVKKLA-NH2 [GP12] belongs above 2000 µg/mL; to LRKFWKKIRKFLKKI-NH2 [GN8], 62.5 µg/mL.
In turn, Polymyxin B registered an MIC P. aeruginosa ZEM-1A in series [6] of 0.5 µg/mL. In addition, the MIC P. aeruginosa ZEM9A in series [7] was 4 µg/mL. In series [8], the “MIC S. epidermidis” value is 32–64. The MIC B. cenocepacia in series [9] is above 64 µg/mL. The substance also displayed an MIC S. maltophilia in series [10] of 0.5 µg/mL. The MIC E. cloacae in [11] amounted to 1 µg/mL. In addition, the MIC P. aeruginosa PA14 2P4 (pmrB) in [12] turned out to be 2 µg/mL. In series [13], this substance came in with an MIC P. aeruginosa PA14 below 0.5 µg/mL. Also, the MIC P. aeruginosa PA14 4.13 (phoQ) in series [14] amounted to 1 µg/mL. For the same substance, the MIC P. aeruginosa PA14 4.18 (pmrB) in [15] worked out at 2 µg/mL. Besides, in series [16], the MIC K. pneumoniae (OXA-48) came out at 1 µg/mL. Also, the MIC K. pneumoniae NCTC148 in series [17] was 1 µg/mL.
Consider RLRKKWRKLKKLL-NH2 [GN6], for which the “MHC (minimal hemolytic concentration)” value in series [1] is 2000 µg/mL.
The same measure, in the same setting: to RRWKWRRKIKKWL-NH2 [GN2] belongs 1000 µg/mL; to RWRWPILGRILR-NH2 [GP2], 500 µg/mL.

These data come from article PMC8285431, “Machine learning designs non-hemolytic antimicrobial peptides” (Chemical Science, 2021).
